Here are results for 16 compounds from US20250325687A1, “CONJUGATE COMPRISING TOLL-LIKE RECEPTOR AGONIST” (MABSOFT THERAPEUTICS (SHANGHAI) CO., LTD., priority 2022, published 2025).

Structures are written as SMILES. Where two headings read alike, the source gives them in different places. A value given as a limit tells only on which side of the number the result lay.

By EC50 is commonly meant the concentration at which the effect is half-maximal.

Common to all, as to format: cell-based
Test [1] deals with T1, hTLR8 (human Toll-like receptor 8) (Homo sapiens, UniProt Q9NR97).
T1 construct: host or cells: HEK-Blue hTLR8 (HEK293-derived reporter cells)
T1 sequence (Q9NR97 27-1041): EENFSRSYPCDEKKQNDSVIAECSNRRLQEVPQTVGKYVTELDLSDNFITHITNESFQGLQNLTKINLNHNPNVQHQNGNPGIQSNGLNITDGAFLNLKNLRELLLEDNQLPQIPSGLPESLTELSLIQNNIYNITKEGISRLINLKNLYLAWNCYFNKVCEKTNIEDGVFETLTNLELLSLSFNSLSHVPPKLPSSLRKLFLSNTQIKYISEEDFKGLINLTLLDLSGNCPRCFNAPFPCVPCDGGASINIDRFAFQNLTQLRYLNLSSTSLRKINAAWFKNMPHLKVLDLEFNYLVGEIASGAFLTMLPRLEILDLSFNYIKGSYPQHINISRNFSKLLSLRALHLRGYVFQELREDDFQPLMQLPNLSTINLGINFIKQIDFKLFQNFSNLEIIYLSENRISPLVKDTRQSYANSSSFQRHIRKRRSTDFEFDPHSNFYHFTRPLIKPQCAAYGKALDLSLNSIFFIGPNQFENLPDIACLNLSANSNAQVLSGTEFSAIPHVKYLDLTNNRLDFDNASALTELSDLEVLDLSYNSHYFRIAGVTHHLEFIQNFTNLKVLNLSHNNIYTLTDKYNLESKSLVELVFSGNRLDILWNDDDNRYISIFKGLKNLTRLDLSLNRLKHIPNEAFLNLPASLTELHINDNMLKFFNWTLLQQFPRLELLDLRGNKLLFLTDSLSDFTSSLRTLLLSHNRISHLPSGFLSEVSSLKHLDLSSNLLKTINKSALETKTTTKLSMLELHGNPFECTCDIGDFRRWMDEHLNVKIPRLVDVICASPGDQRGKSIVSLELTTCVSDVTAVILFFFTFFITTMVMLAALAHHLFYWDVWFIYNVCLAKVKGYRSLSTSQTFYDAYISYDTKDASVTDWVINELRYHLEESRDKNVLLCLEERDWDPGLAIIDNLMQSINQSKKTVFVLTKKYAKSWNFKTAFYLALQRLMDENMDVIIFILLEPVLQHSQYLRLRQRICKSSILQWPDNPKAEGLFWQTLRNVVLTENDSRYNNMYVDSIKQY
The test is described as follows: hTLR8 cell assay (HEK-Blue hTLR8 reporter cells). Conditions: 24 hours, OD 650 nm. In short, it runs like this:
(§1)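 HEK-Blue reporter cells in HEK-Blue Detection medium (50000 cells/mL) were exposed to test compounds for 24 hours at 37° C, 5% CO2. Agonism was read from supernatant incubated 1 hour at 37° C with QUANTI-Blue, measured as optical density at 650 nm.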

The subject of test [2] is human PBMC (human peripheral blood mononuclear cells). The test is described as follows: PBMC screening assay: induction of TNF-α production. To be noted: read-out: EC50 (μM) TNF-α (hPBMC). The method, then:
The payload compounds of Formula (II′) were assayed to evaluate the induction of TNF-α production in human PBMC (human peripheral blood mononuclear cells).
Human peripheral blood mononuclear cells (PBMC) were obtained from Allcells. […] PBMC were incubated for 24 hours at 37° C. in a 5% CO2 humidified incubator. The following day PBMC plates were centrifuged at 500×g for 5 minutes and the growth media was removed. 200 μL of compound prepared in growth media at a series of diluted concentrations ranging from 2.54 nM to 50 μM were added to PBMC in duplicate and incubated for 24 hours at 37° C. in a 5% CO2 incubator. Prior to supernatant harvest, cells were spun at 500×g for 5 minutes to remove cell debris. TNF-α activity was assessed in the supernatant by ELISA (Elabscience) per the manufacturer's instructions. Optical density at 450 nm (ELISA) was analyzed using a plate reader.

Test [3] has as its target T2, hTLR7 (human Toll-like receptor 7) (Homo sapiens, UniProt Q9NYK1).
T2 construct: host or cells: HEK-Blue hTLR7 (HEK293-derived reporter cells)
T2 sequence (Q9NYK1 27-1049): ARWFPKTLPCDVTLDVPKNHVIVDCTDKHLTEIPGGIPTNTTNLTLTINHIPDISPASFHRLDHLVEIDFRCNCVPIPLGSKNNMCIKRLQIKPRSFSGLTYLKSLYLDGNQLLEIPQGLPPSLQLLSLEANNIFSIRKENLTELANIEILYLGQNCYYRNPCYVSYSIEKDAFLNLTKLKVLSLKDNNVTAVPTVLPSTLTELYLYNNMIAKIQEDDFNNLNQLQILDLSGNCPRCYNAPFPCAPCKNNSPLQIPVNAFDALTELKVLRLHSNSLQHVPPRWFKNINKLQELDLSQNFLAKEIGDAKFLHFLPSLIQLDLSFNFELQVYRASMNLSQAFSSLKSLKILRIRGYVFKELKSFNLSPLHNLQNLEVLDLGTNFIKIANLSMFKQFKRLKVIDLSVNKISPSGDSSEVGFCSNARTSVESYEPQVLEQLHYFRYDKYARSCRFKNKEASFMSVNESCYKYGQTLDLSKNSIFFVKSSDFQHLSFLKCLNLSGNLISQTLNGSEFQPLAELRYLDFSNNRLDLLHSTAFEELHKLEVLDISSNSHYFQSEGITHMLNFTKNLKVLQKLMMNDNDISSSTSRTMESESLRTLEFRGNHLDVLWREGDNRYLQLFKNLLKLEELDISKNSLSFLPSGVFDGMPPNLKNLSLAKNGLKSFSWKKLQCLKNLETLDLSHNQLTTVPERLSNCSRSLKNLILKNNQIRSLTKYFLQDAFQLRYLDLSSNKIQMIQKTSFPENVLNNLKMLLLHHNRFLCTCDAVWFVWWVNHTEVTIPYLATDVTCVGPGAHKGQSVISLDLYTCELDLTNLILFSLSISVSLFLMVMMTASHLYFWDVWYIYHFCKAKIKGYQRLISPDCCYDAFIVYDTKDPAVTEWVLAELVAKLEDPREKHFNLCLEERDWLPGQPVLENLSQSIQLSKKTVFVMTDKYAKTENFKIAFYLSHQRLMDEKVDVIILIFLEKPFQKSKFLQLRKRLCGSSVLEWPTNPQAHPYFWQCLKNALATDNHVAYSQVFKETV
The test is described as follows: hTLR7 cell assay (HEK-Blue hTLR7 reporter cells). To be noted: 24 hours, OD 650 nm. The procedure, abridged: as §1

Setting [4] is: human PBMC, 24 hours, TNF-α by ELISA, class symbols.

Take `CCOCc1nc2c(N)nc3cc(Cc4cccc(CN)c4)ccc3c2n1CC(C)(C)O` [Compound 4, 1-(4-amino-7-(3-(aminomethyl)benzyl)-2-(ethoxymethyl)-1H-imidazo[4,5-c]quinolin-1-yl)-2-methylpropan-2-ol]: the EC50 in test [1] was less than 5 µM; in test [2] (Homo sapiens, PBMC, 24 h), more than 0.64 µM; in test [3], less than 1 µM.
On the same counts, the results for `CCC[C@@H](C)c1nc2c(N)nc3cc(Cc4ccc(CCN)cc4)ccc3c2n1CC(C)(C)O` [Compound 9, (R)-1-(4-amino-7-(4-(2-aminoethyl)benzyl)-2-(pentan-2-yl)-1H-imidazo[4,5-c]quinolin-1-yl)-2-methylpropan-2-ol] are more than 20 µM, less than 0.64 µM and more than 10 µM.
In the case of `CCCCc1nc2c(N)nc3cc(Cc4ccc(CCCN)cc4)ccc3c2n1CC(C)(C)O` [Compound 15, 1-(4-amino-7-(4-(3-aminopropyl)benzyl)-2-butyl-1H-imidazo[4,5-c]quinolin-1-yl)-2-methylpropan-2-ol], the values for the EC50 in test [1], in test [2] (setting [4]) and in test [3] were less than 5 µM, less than 0.64 µM and 1 to 10 µM, respectively.
`CCCCc1nc2c(N)nc3cc(Cc4cccc(CN)c4)ccc3c2n1CC(C)(C)O` [Compound 16, 1-(4-amino-7-(3-(aminomethyl)benzyl)-2-butyl-1H-imidazo[4,5-c]quinolin-1-yl)-2-methylpropan-2-ol]: the EC50 in test [1] was less than 5 µM; in test [2] (setting [4]) it was less than 0.64 µM; in test [3] it was less than 1 µM.
The like results for `CCCCc1nc2c(N)nc3cc(Cc4cccc(CCN)c4)ccc3c2n1CC(C)(C)O` [Compound 17, 1-(4-amino-7-(3-(2-aminoethyl)benzyl)-2-butyl-1H-imidazo[4,5-c]quinolin-1-yl)-2-methylpropan-2-ol] were, in that order, less than 5 µM, more than 0.64 µM and less than 1 µM.
`CCCCc1nc2c(N)nc3cc(Cc4cccc(CCCN)c4)ccc3c2n1CC(C)(C)O` [Compound 18, 1-(4-amino-7-(3-(3-aminopropyl)benzyl)-2-butyl-1H-imidazo[4,5-c]quinolin-1-yl)-2-methylpropan-2-ol]: the EC50 in test [1] is 5 to 20 µM; in test [2] (Homo sapiens, PBMC, 24 h), more than 0.64 µM; in test [3], less than 1 µM.
Consider `CCCCc1nc2c(N)nc3cc(Cc4ccc(CCN)cc4)ccc3c2n1CC(C)(C)O` [Compound 19, 1-(4-amino-7-(4-(2-aminoethyl)benzyl)-2-butyl-1H-imidazo[4,5-c]quinolin-1-yl)-2-methylpropan-2-ol], for which the EC50 in test [1] was less than 5 µM; in test [2] (Homo sapiens, PBMC, 24 h) it was less than 0.64 µM; in test [3] it was less than 1 µM.
`CCCCc1nc2c(N)nc3cc(Cc4cccc(CNC)c4)ccc3c2n1CC(C)(C)O` [Compound 20, 1-(4-amino-2-butyl-7-(3-((methylamino)methyl)benzyl)-1H-imidazo[4,5-c]quinolin-1-yl)-2-methylpropan-2-ol]: the EC50 in test [1] is less than 5 µM; in test [2] (setting [4]), less than 0.64 µM; in test [3] it was less than 1 µM.
The like results for `CCOCc1nc2c(N)nc3cc(Cc4ccccc4)ccc3c2n1CC(C)(C)OCCN` [Compound 23, 1-(2-(2-aminoethoxy)-2-methylpropyl)-7-benzyl-2-(ethoxymethyl)-1H-imidazo[4,5-c]quinolin-4-amine] were, in that order, less than 5 µM, more than 0.64 µM and 1 to 10 µM.
Take `CCC[C@@H](C)c1nc2c(N)nc3cc(Cc4ccccc4)ccc3c2n1CC(C)(C)OCCN` [Compound 30, (R)-1-(2-(2-aminoethoxy)-2-methylpropyl)-7-benzyl-2-(pentan-2-yl)-1H-imidazo[4,5-c]quinolin-4-amine]: the EC50 in test [1] was less than 5 µM; in test [2] (setting [4]), more than 0.64 µM; in test [3] it was 1 to 10 µM.
The like results for `CCCC(C)c1nc2c(N)nc3cc(Cc4ccccc4)ccc3c2n1CC(C)(C)OCCCN` (stereo not drawn) [Compound 32, 1-(2-(3-aminopropoxy)-2-methylpropyl)-7-benzyl-2-(pentan-2-yl)-1H-imidazo[4,5-c]quinolin-4-amine] were, in that order, less than 5 µM, more than 0.64 µM and 1 to 10 µM.
As to `CCOCc1nc2c(N)nc3cc(Cc4ccccc4)ccc3c2n1CC1(OCCN)CC1` [Compound 44], the 50% effective concentration (EC50) is less than 5 µM in test [1]; more than 0.64 µM in test [2] (Homo sapiens, PBMC, 24 h); 1 to 10 µM in test [3].
`CC(C)(O)Cn1c(CCCC(F)(F)F)nc2c(N)nc3cc(Cc4cccc(CN)c4)ccc3c21` [Compound 51, 1-(4-amino-7-(3-(aminomethyl)benzyl)-2-(4,4,4-trifluorobutyl)-1H-imidazo[4,5-c]quinolin-1-yl)-2-methylpropan-2-ol]: the EC50 in test [1] was less than 5 µM; in test [2] (setting [4]), more than 0.64 µM; in test [3] it was less than 1 µM.
Consider `CCCC(F)(F)c1nc2c(N)nc3cc(Cc4cccc(CN)c4)ccc3c2n1CC(C)(C)O` [Compound 52, 1-(4-amino-7-(3-(aminomethyl)benzyl)-2-(1,1-difluorobutyl)-1H-imidazo[4,5-c]quinolin-1-yl)-2-methylpropan-2-ol], for which the results for the EC50 in test [1], in test [2] (setting [4]) and in test [3] were less than 5 µM, more than 0.64 µM and 1 to 10 µM, respectively.
On the same counts, the results for `CC(C)(O)Cn1c(COCC(F)(F)F)nc2c(N)nc3cc(Cc4cccc(CN)c4)ccc3c21` [Compound 53, 1-(4-amino-7-(3-(aminomethyl)benzyl)-2-((2,2,2-trifluoroethoxy)methyl)-1H-imidazo[4,5-c]quinolin-1-yl)-2-methylpropan-2-ol] are less than 5 µM, less than 0.64 µM and less than 1 µM.
The like results for `CC(C)(O)Cn1c(CC2CC2)nc2c(N)nc3cc(Cc4cccc(CN)c4)ccc3c21` [Compound 54, 1-(4-amino-7-(3-(aminomethyl)benzyl)-2-(cyclopropylmethyl)-1H-imidazo[4,5-c]quinolin-1-yl)-2-methylpropan-2-ol] were, in that order, less than 5 µM, more than 0.64 µM and less than 1 µM.
